For data set [1] the following is noted: human gut metagenome, 24 h, 2 µM.
Data set [2] is described as follows: The drug is tested on Z-017 corresponding to mouse gut metagenome with ENA study accession number: PRJEB37062 and ENA sample accession number: ERS12561816 for biotransformation under anaerobic condition. The drug concentrations were measured over 9 timepoints collected between 0 and 24 hours of incubation by liquid-chromatography-coupled mass spectrometry (LC–MS). The following applies: 2 µM.

For data set [3] the following is noted: human gut metagenome, 24 h, 2 µM. This is another data set of the same source.
The conditions of data set [4]: human gut metagenome, 24 h, 2 µM. The source holds these as a separate data set.
Data set [5] can be described thus: The drug is tested on Z-020 corresponding to rabbit gut metagenome with ENA study accession number: PRJEB37062 and ENA sample accession number: ERS12561819 for biotransformation under anaerobic condition. The drug concentrations were measured over 9 timepoints collected between 0 and 24 hours of incubation by liquid-chromatography-coupled mass spectrometry (LC–MS). The following applies: 2 µM.

A short description of data set [6]: The drug is tested on Z-019 corresponding to rat gut metagenome with ENA study accession number: PRJEB37062 and ENA sample accession number: ERS12561818 for biotransformation under anaerobic condition. The drug concentrations were measured over 9 timepoints collected between 0 and 24 hours of incubation by liquid-chromatography-coupled mass spectrometry (LC–MS). Conditions: 2 µM.

The conditions of data set [7]: human gut metagenome, 24 h, 2 µM. The source holds these as a separate data set.
A short description of data set [8]: The drug is tested on WLS-082 corresponding to human gut metagenome with ENA study accession number: PRJEB37062 and ENA sample accession number: ERS12561751 for biotransformation under anaerobic condition. The drug concentrations were measured over 9 timepoints collected between 0 and 24 hours of incubation by liquid-chromatography-coupled mass spectrometry (LC–MS). The following applies: 2 µM.

A short description of data set [9]: The drug is tested on Z-001 corresponding to mouse gut metagenome with ENA study accession number: PRJEB37062 and ENA sample accession number: ERS12561801 for biotransformation under anaerobic condition. The drug concentrations were measured over 9 timepoints collected between 0 and 24 hours of incubation by liquid-chromatography-coupled mass spectrometry (LC–MS). The following applies: 2 µM.

Data set [10] is described as follows: The drug is tested on Z-021 corresponding to metagenome with ENA study accession number: PRJEB37062 and ENA sample accession number: ERS12561820 for biotransformation under anaerobic condition. The drug concentrations were measured over 9 timepoints collected between 0 and 24 hours of incubation by liquid-chromatography-coupled mass spectrometry (LC–MS). The following applies: 2 µM.

For data set [11] the following is noted: human gut metagenome, 24 h, 2 µM. The source holds these as a separate data set.
A short description of data set [12]: The drug is tested on Z-016 corresponding to mouse gut metagenome with ENA study accession number: PRJEB37062 and ENA sample accession number: ERS12561815 for biotransformation under anaerobic condition. The drug concentrations were measured over 9 timepoints collected between 0 and 24 hours of incubation by liquid-chromatography-coupled mass spectrometry (LC–MS). The following applies: 2 µM.

The conditions of data set [13]: human gut metagenome, 24 h, 2 µM. This is another data set of the same source.
Data set [14] can be described thus: The drug is tested on WLS-220 corresponding to human gut metagenome with ENA study accession number: PRJEB37062 and ENA sample accession number: ERS12561769 for biotransformation under anaerobic condition. The drug concentrations were measured over 9 timepoints collected between 0 and 24 hours of incubation by liquid-chromatography-coupled mass spectrometry (LC–MS). Conditions: 2 µM.

For data set [15] the following is noted: human gut metagenome, 24 h, 2 µM. This is another data set of the same source.
Data set [16] in a line: The drug is tested on Z-018 corresponding to pig gut metagenome with ENA study accession number: PRJEB37062 and ENA sample accession number: ERS12561817 for biotransformation under anaerobic condition. The drug concentrations were measured over 9 timepoints collected between 0 and 24 hours of incubation by liquid-chromatography-coupled mass spectrometry (LC–MS). Conditions: 2 µM.

A short description of data set [17]: The drug is tested on WLS-350 corresponding to human gut metagenome with ENA study accession number: PRJEB37062 and ENA sample accession number: ERS12561789 for biotransformation under anaerobic condition. The drug concentrations were measured over 9 timepoints collected between 0 and 24 hours of incubation by liquid-chromatography-coupled mass spectrometry (LC–MS). The following applies: 2 µM.

For data set [18] the following is noted: human gut metagenome, 24 h, 2 µM. The source holds these as a separate data set.
The conditions of data set [19]: human gut metagenome, 24 h, 2 µM. The source holds these as a separate data set.
Data set [20] is described as follows: The drug is tested on WLS-039 corresponding to human gut metagenome with ENA study accession number: PRJEB37062 and ENA sample accession number: ERS12561746 for biotransformation under anaerobic condition. The drug concentrations were measured over 9 timepoints collected between 0 and 24 hours of incubation by liquid-chromatography-coupled mass spectrometry (LC–MS). The following applies: 2 µM.

From ChEMBL document CHEMBL5724914, “Linking interpersonal differences in gut microbiota composition and drug biotransformation activity” (2024) come the findings set out here.
Also: call rule not given here.

`NC(CO)(CO)CO.O=C(c1ccccc1)c1ccc2n1CCC2C(=O)O` (stereo not given) [KETOROLAC TROMETHAMINE]: the “Bacterial Biotransformation” value was “Compound metabolized” in data set [1]; “Compound NOT metabolized” in data set [2]; “Compound metabolized” in data set [3]; “Compound metabolized” in [4]; “Compound metabolized” in data set [5]; “Compound NOT metabolized” in data set [6]. Further, the “Bacterial Biotransformation” value in data set [7] is listed as “Compound metabolized”; in data set [8] it was “Compound metabolized”; in data set [9] it was “Compound NOT metabolized”; in data set [10] it was “Compound metabolized”; in [11], “Compound metabolized”; in data set [12], “Compound metabolized”. In addition, the “Bacterial Biotransformation” value in data set [13] is “Compound metabolized”; in data set [14], “Compound metabolized”; in data set [15], “Compound metabolized”; in data set [16], “Compound NOT metabolized”; in data set [17] it was “Compound metabolized”; in data set [18], “Compound metabolized”. Further, the “Bacterial Biotransformation” value in data set [19] and in [20] was “Compound metabolized” in each case.
As for `CC[C@H](C)C(=O)O[C@H]1C[C@@H](C)C=C2C=C[C@H](C)[C@H](CC[C@@H]3C[C@@H](O)CC(=O)O3)[C@H]21` [LOVASTATIN], the “Bacterial Biotransformation” value in [1] is “Compound metabolized”; in data set [2], “Compound metabolized”; in [3], “Compound metabolized”; in data set [4], “Compound NOT metabolized”; in [5], “Compound metabolized”; in [6] it was “Compound metabolized”. Further, the “Bacterial Biotransformation” value in data set [7] is “Compound NOT metabolized”; in [8] it was “Compound NOT metabolized”; in data set [9] it was “Compound NOT metabolized”; in data set [10], “Compound metabolized”; in data set [11] it was “Compound NOT metabolized”; in data set [12], “Compound NOT metabolized”. The “Bacterial Biotransformation” value in [13] was “Compound NOT metabolized”; in data set [14], “Compound NOT metabolized”; in data set [15], “Compound NOT metabolized”; in data set [16], “Compound metabolized”; in [17] it was “Compound NOT metabolized”; in [18] it was “Compound NOT metabolized”. The “Bacterial Biotransformation” value in data set [19] and in data set [20] was “Compound NOT metabolized” in each case.
In the case of `CN1C(=O)CC(C)(c2ccccc2)C1=O` (stereo not given) [METHSUXIMIDE], the “Bacterial Biotransformation” value is “Compound metabolized” in data set [1]; “Compound NOT metabolized” in data set [2]; “Compound NOT metabolized” in data set [3]; “Compound metabolized” in data set [4]; “Compound NOT metabolized” in data set [5]; “Compound NOT metabolized” in [6]. Further, the “Bacterial Biotransformation” value in [7] is “Compound NOT metabolized”; in data set [8], “Compound NOT metabolized”; in [9] it was “Compound NOT metabolized”; in data set [10], “Compound metabolized”; in data set [11], “Compound NOT metabolized”; in data set [12], “Compound NOT metabolized”. Further, the “Bacterial Biotransformation” value in [13] is recorded as “Compound NOT metabolized”; in data set [14], “Compound NOT metabolized”; in [15], “Compound metabolized”; in [16], “Compound NOT metabolized”; in data set [17] it was “Compound NOT metabolized”; in data set [18], “Compound NOT metabolized”. Moreover, the “Bacterial Biotransformation” value in data set [19] and in [20] was “Compound NOT metabolized” each time.
As to `COc1ccccc1N1CCN(CC(O)COc2cccc3ccccc23)CC1` (stereo not given) [NAFTOPIDIL], the “Bacterial Biotransformation” value in data set [1], in data set [2], in data set [3], in data set [4], in data set [5] and in data set [6] was “Compound NOT metabolized” each time. Also, the “Bacterial Biotransformation” value is on record as “Compound NOT metabolized” in [7]; “Compound NOT metabolized” in [8]; “Compound NOT metabolized” in data set [9]; “Compound metabolized” in [10]; “Compound NOT metabolized” in data set [11]; “Compound NOT metabolized” in data set [12]. Moreover, the “Bacterial Biotransformation” value in [13], in [14], in data set [15], in data set [16], in [17] and in [18] was “Compound NOT metabolized” each time. The “Bacterial Biotransformation” value in data set [19] and in data set [20] was “Compound NOT metabolized” in each case.
As to `COc1ccc2[nH]c([S+]([O-])Cc3ncc(C)c(OC)c3C)nc2c1` (stereo not given) [OMEPRAZOLE], the “Bacterial Biotransformation” value is “Compound metabolized” in data set [1]; “Compound NOT metabolized” in [2]; “Compound metabolized” in data set [3]; “Compound metabolized” in [4]; “Compound NOT metabolized” in data set [5]; “Compound NOT metabolized” in data set [6]. For the same molecule, the “Bacterial Biotransformation” value in data set [7] is given as “Compound metabolized”; in data set [8], “Compound metabolized”; in data set [9], “Compound NOT metabolized”; in data set [10], “Compound NOT metabolized”; in [11], “Compound metabolized”; in data set [12] it was “Compound metabolized”. The “Bacterial Biotransformation” value is given as “Compound metabolized” in [13]; “Compound metabolized” in data set [14]; “Compound metabolized” in data set [15]; “Compound NOT metabolized” in [16]; “Compound metabolized” in [17]; “Compound metabolized” in data set [18]. Also, the “Bacterial Biotransformation” value in data set [19] and in data set [20] was “Compound metabolized” throughout.
